The results in this text go back to patent EP0469010B1, “COSMETIC COMPOSITION” (priority 1989, dated 1990).

Holding throughout (assay type): in vivo, human
The subject of one test is alopecia areata. The test can be described thus: Clinical pilot study of topical sodium sucrose sulfate in alopecia: alopecia areata. More on the design: key: very good in cases of definite cosmetic benefit; good in cases of significant regrowth of new hair, but not to an extend that is cosmetically apparent at distance; no effect in cases of no or only marginal regrowth of hair. As to conditions: 5 female patients aged 39 to 46 years, treated 2 to 9 months, 3% solution topically. The method, then: (§1) During a 11 month period (April 1989 to March 1990), a total of 50 patients participated in a pilot study, evaluating the effect of the sodium salt of sucrose sulfate administered topically for the treatment of alopecia.
(§2) The test preparation was a 3% solution of Na-sucrose sulfate in a vehicle of 50% water/25% ethanol/25% propylene glycol (w/w), dispensed in 35 ml bottles with a sponge for topical administration on the scalp. The test preparation was applied morning and evening on the scalp, preferably on areas of partial or total alopecia. In average the patients have been using one bottle per month.
(§3) All patients were recruited by one dermatologist, and the effect of treatment was evaluated clinically by the same investigator, at monthly clinic visits.
(§4) The clinical effect was classified as very good in cases of definite cosmetic benefit, as good in cases of significant regrowth of new hair, but not to an extend that is cosmetically apparent at distance, and as no effect in cases of no or only marginal regrowth of hair.
5 Female patients with alopecia areata aged from 39 years to 46 years were treated for periods from 2 to 9 months, the treatment showing a very good effect.

The test system of test [1] is subtotal or total alopecia, with underlying atopic dermatitis. The test can be described thus: Clinical pilot study of topical sodium sucrose sulfate in alopecia: subtotal or total alopecia. As to conditions: 3% solution topically. The method, then: as §1, §2, §3, §4
2 Patients suffered from subtotal or total alopecia, with underlying atopic dermatitis.

In a further test the test system is underlying discoid LE. Description: Clinical pilot study of topical sodium sucrose sulfate in alopecia: underlying discoid LE. Also on record: key: very good in cases of definite cosmetic benefit; good in cases of significant regrowth of new hair, but not to an extend that is cosmetically apparent at distance; no effect in cases of no or only marginal regrowth of hair. As to conditions: 2 female patients, treated 2 and 4 months; regrowth except for the very center of the lesion. The method, then: as §1, §2, §3, §4
2 female patients with underlying discoid LE were successfully treated for 2 and 4 months, respectively, with a very good effect comprising regrowth of hair except for the very center of the lesion.

Test [2] concerns Male androgenic alopecia. Description: Clinical pilot study of topical sodium sucrose sulfate in alopecia: male androgenic alopecia. As to conditions: for clinical effect: 4 patients; for Clinical effect Good (number of patients) / Clinical effect No effect (number of patients) / Clinical effect Very good (number of patients): 3% solution topically morning and evening, about 3 to 9 months. Also on record: key to clinical effect: very good in cases of definite cosmetic benefit; good in cases of significant regrowth of new hair, but not to an extend that is cosmetically apparent at distance; no effect in cases of no or only marginal regrowth of hair. The method, then: During a 11 month period (April 1989 to March 1990), a total of 50 patients participated in a pilot study, evaluating the effect of the sodium salt of sucrose sulfate administered topically for the treatment of alopecia. The test preparation was a 3% solution of Na-sucrose sulfate in a vehicle of 50% water/25% ethanol/25% propylene glycol (w/w), dispensed in 35 ml bottles with a sponge for topical administration on the scalp. The test preparation was applied morning and evening on the scalp, preferably on areas of partial or total alopecia. In average the patients have been using one bottle per month. All patients were recruited by one dermatologist, and the effect of treatment was evaluated clinically by the same investigator, at monthly clinic visits. The clinical effect was classified as very good in cases of definite cosmetic benefit, as good in cases of significant regrowth of new hair, but not to an extend that is cosmetically apparent at distance, and as no effect in cases of no or only marginal regrowth of hair. Male androgenic alopecia was the clinical diagnosis in 35 patients, their age ranging from 17 years to 50 years. Period of treatment was about 3 months in 15 case, about 6 months in 10 cases, and about 9 months in 10 cases.

The subject of test [3] is very bad hair condition and underlying psoriasis. Description: Clinical pilot study of topical sodium sucrose sulfate in alopecia: bad hair condition with psoriasis. More on the design: key: very good in cases of definite cosmetic benefit; good in cases of significant regrowth of new hair, but not to an extend that is cosmetically apparent at distance; no effect in cases of no or only marginal regrowth of hair. The following applies: one person, treated for 9 months, 3% solution topically. Here is the method:
as §1, §2, §3, §4
One person with very bad hair condition and underlying psoriasis was treated for 9 months and a very good effect on the test drug was obtained.

In another test the test system is Ludwig type alopecia. The test can be described thus: Clinical pilot study of topical sodium sucrose sulfate in alopecia: Ludwig type alopecia in females. The following applies: 5 females aged 20-49 years, treated 6-8 months, 3% solution topically. Here is the method:
as §2, §3, §4
5 Females aged from 20-49 years with Ludwig type alopecia were treated with the test drug for 6-8 months.

In test [4] the test system is hair loss secondary to anti-cancer treatment. The test can be described thus: Pilot study of sodium sucrose sulfate, prophylactic and therapeutic, in hair loss secondary to anti-cancer treatment. The text has this:
The test preparation containing sodium sucrose sulfate from Example 11 was used both prophylactically and therapeutically in a few patients undergoing radiation and/or cytostatic anti-cancer treatment. One person started the treatment with the test preparation immediately after the anti-cancer treatment was instituted, applying the test preparation twice daily on eyebrows and eyelashes on the right side, and the left side served as untreated control. The treatment lasted four weeks. […] Another four females - also on anti-cancer treatment - used the test preparation twice daily, topically on the scalp after the hair was lost.

The subject of test [5] is common male-pattern baldness. The test can be described thus: Treatment with sucralfate cream of common male-pattern baldness (single case, Example 14). The following applies: 10% w/w sucralfate preparation, two daily topical applications, person, after 3-4 weeks. The text has this: At the beginning, a "plume" appeared in the area, and after a few days the "plume" began turning into real hairs and 8 days after, there were dozens of real hairs which were indistinguishable from other hairs of the scalp, apart from being shorter and all coloured in the original colour of the hair, in contrast to the existing hair, which was partially greyed.

A further test relates to total alopecia. Description: Clinical pilot study of topical micronized sucralfate in alopecia: total alopecia. The following applies: one patient, total alopecia for 20 years, 5% micronized sucralfate twice daily for 6 weeks. The text has this:
(§5) A composition containing micronized sucralfate (<5 µm, Giulini Chemie, Germany) 5%, ethanol 25%, propylene glycol 25%, and distilled water 45%, was used in two daily applications on the scalp, the composition being dispensed in a bottle with sponge applicator. The average consumption of the test preparation in individual patients was about one bottle per month. […] The effects were lasting after stopping the treatment for about 4 months.

Test [6] concerns Male androgenic alopecia. The test can be described thus: Clinical pilot study of topical micronized sucralfate in alopecia: male androgenic alopecia.
Excerpt: as §5

Setting [7] is: age group 17-25 years, 20 patients.
Where [8] appears, read: age group 25-40 years, 10 patients.
[9] abbreviates: age group >40 years, 5 patients.

Structures can show the parent of a compound that is named as a salt.

Take `O=S(=O)(O)OC[C@H]1O[C@@](COS(=O)(=O)O)(O[C@H]2O[C@H](COS(=O)(=O)O)[C@@H](OS(=O)(=O)O)[C@H](OS(=O)(=O)O)[C@H]2OS(=O)(=O)O)[C@@H](OS(=O)(=O)O)[C@@H]1OS(=O)(=O)O` [sodium sucrose sulfate, Sodium sucrose octasulfate]: the clinical effect entry in the test with alopecia areata is “very good”; in the test on underlying discoid LE, “very good”; in the test with Male androgenic alopecia [2] (age group 17-25, previously failed on minoxidil, 3% solution topically), “no effect”; with Male androgenic alopecia [2] (age group 25-40, previously failed on minoxidil, 3% solution topically), “good”; in [3] it was “very good”. For the same compound, the effect of treatment entry in [1] (person with 2-3 years of alopecia, treatment for 8 months) is given as “only little effect”. Besides, the regrowth of hair entry in test [1] (person, bald for 20 years, treatment for 10 months) is recorded as “complete regrowth of hair”. Besides, the “Clinical effect Good (number of patients)” value is on record as 8 with Male androgenic alopecia [2] (setting [7]), 2 in the test with Male androgenic alopecia [2] (setting [8]) and 2 with Male androgenic alopecia [2] (setting [9]). The “Clinical effect No effect (number of patients)” value in the test on Male androgenic alopecia [2] (setting [7]) came out at 4; in the test on Male androgenic alopecia [2] (setting [8]), 2; in the test on Male androgenic alopecia [2] (setting [9]), 2. Besides, the “Clinical effect Very good (number of patients)” value is 8 with Male androgenic alopecia [2] (setting [7]) and 4 with Male androgenic alopecia [2] (setting [8]). In addition, the “time of treatment until hair-growing effect apparent” value with Male androgenic alopecia [2] (patients responding to the treatment, whole pilot study, typical value) is approximately 1 month. Further, the “effect in comparison to topically applied minoxidil (Regain®)” value with Male androgenic alopecia [2] (whole pilot study, 3% solution topically) is “markedly better effect”. Moreover, the “number of patients with good effect” value in the test with Ludwig type alopecia is given as 3 patients. Moreover, the “number of patients with only a marginal effect” value in the test on Ludwig type alopecia is 2 patients. For the same compound, the “regrowth of hair after loss” value in test [4] (four females on anti-cancer treatment, twice daily topically on the scalp after the hair was lost) is listed as “much faster regrowth of hair than normally”. Further, the “prevention of loss of eyebrows and eyelashes” value in test [4] (one on anti-cancer treatment, twice daily on right side for four weeks, left side untreated control (lost)) is “eyebrows and eyelashes remained”.

With “sucrose octakis(hydrogen sulfate) aluminium complex [sucralfate]”, in [5], the appearance of hair result is “appearance of hair in the otherwise bald lateral-frontal areas”. Moreover, the regrowth of hair entry with total alopecia is given as “dense regrowth of fine short terminal hairs all over the scalp”; in the test on Male androgenic alopecia [6] (one person, Hamilton grade 3, 5% micronized sucralfate twice daily for two months), “dense regrowth of small terminal hairs”; with Male androgenic alopecia [6] (six male patients aged 30 to 48 years, Hamilton grade 3 and 4, 5% micronized sucralfate twice daily for 3 to 6 months, all six cases) it was “definite regrowth of terminal hairs”. The “duration of effects after stopping the treatment” value in the test on Male androgenic alopecia [6] (one person, Hamilton grade 3, after two months of treatment) is on record as “about 4 months”. Besides, in the test with Male androgenic alopecia [6] (six male patients, Hamilton grade 3 and 4, typical value), the “time of treatment until effect seen” value was 6-8 weeks.
